As a reminder, the EC50 is the concentration at which the effect is half-maximal.

For this assay, the target named is T1, human M1 receptor (Homo sapiens, UniProt P11229).
T1 construct: expressed in transfected cells; host or cells: CHO-K1
T1 sequence (P11229 1-460): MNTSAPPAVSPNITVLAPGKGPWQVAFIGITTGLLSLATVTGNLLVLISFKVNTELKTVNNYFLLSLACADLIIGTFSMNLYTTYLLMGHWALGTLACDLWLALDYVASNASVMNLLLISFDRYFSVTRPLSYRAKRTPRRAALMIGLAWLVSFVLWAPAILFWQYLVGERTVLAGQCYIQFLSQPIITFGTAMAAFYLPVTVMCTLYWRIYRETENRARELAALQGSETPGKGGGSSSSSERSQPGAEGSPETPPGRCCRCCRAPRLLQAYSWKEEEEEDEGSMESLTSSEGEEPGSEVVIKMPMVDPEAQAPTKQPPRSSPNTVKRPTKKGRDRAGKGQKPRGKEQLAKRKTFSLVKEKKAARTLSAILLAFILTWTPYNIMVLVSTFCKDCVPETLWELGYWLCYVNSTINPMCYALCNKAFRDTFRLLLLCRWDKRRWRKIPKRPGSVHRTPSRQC
Description: Measurement of M1 receptor positive allosteric modulator (M1PAM) activity. Format: cell-based. Particulars: PAM activity in presence of acetylcholine at EC20 concentration; CHO-K1 cells stably expressing human M1 receptor; IP1 time-resolved fluorescence. The protocol:
Measurement of M1 Receptor Positive Allosteric Modulator (M1PAM) Activity
The activity of a test compound in the presence of acetylcholine at an EC20 concentration affording about 20% action of the maximum activity was measured as PAM activity. The method therefor is as follows. To a 384-well white plate (Greiner™) was added 4 μL of the test compound diluted with IP1 Stimulation buffer (CisBio™) containing 0.1% fatty acid-free BSA containing 80 nM acetylcholine. Freeze stock of CHO-K1 cells stably expressing human M1 receptor (hCHRMl) was prepared with IP1 Stimulation buffer (CisBio™) containing 0.1% fatty acid-free BSA, 4 μL thereof was added (10,000 cells/well) and the mixture was cultured in a 5% CO2 incubator at 37° C. for 1 hr. 4 μL of a solution (CisBio™) containing IP1-d2 and Anti-IP1-cryptate Tb conjugate was added the mixture was incubated at room temperature for 1 hr, and the time-resolved fluorescence signal was measured on an Envision plate reader (Perkin Elmer™). The activity (%) of the test compound was calculated by defining the value when acetylcholine was added at the final concentration of 20 μM as 100% and the value when DMSO was added instead of the test compound under acetylcholine-free conditions as 0%, and the EC50 value was calculated as a value of 50% of the concentration dependence curve of the test compound.
Take `Cn1cc(-c2ccc(Cc3cc(C(=O)N[C@H]4CCOC[C@@H]4O)c(F)c4c3OCC4)cc2)nn1` [Example 1, 1,5-anhydro-2,3-dideoxy-3-(((4-fluoro-7-(4-(1-methyl-1H-1,2,3-triazol-4-yl)benzyl)-2,3-dihydro-1-benzofuran-5-yl)carbonyl)amino)-L-threo-pentitol]: the EC50 came out at 3.1 nM.

As to `Cn1cc(-c2ccc(Cc3cc(C(=O)N[C@H]4CCOC[C@@H]4O)c(F)c4c3OCC4)cc2)cn1` [Example 2, 1,5-anhydro-2,3-dideoxy-3-(((4-fluoro-7-(4-(1-methyl-1H-pyrazol-4-yl)benzyl)-2,3-dihydro-1-benzofuran-5-yl)carbonyl)amino)-L-threo-pentitol], the EC50 came out at 4.9 nM.

In the case of `O=C(N[C@H]1CCOC[C@@H]1O)c1cc(Cc2ccc(-n3cccn3)cc2)c2c(c1F)CCO2` [Example 9, 1,5-anhydro-2,3-dideoxy-3-(((4-fluoro-7-(4-(1H-pyrazol-1-yl)benzyl)-2,3-dihydro-1-benzofuran-5-yl)carbonyl)amino)-L-threo-pentitol], the EC50 came out at 7.6 nM.

As to `O=C(N[C@H]1CCCC[C@@H]1O)c1cc(Cc2ccc(-n3cccn3)cc2)c2c(c1F)CCO2` [Example 10, 4-fluoro-N-((1S,2S)-2-hydroxycyclohexyl)-7-(4-(1H-pyrazol-1-yl)benzyl)-2,3-dihydro-1-benzofuran-5-carboxamide], the EC50 is 17 nM.

As to `O=C(N[C@H]1COCC[C@@H]1O)c1cc(Cc2ccc(-n3cccn3)cc2)c2c(c1F)CCO2` [Example 11, 1,5-anhydro-2,4-dideoxy-2-(((4-fluoro-7-(4-(1H-pyrazol-1-yl)benzyl)-2,3-dihydro-1-benzofuran-5-yl)carbonyl)amino)-L-threo-pentitol], the EC50 amounted to 96 nM.

With `CNC(=O)c1ccc(Cc2cc(C(=O)N[C@H]3CCOC[C@@H]3O)c(F)c3c2OCC3)cc1F` [Example 12, 1,5-anhydro-2,3-dideoxy-3-(((4-fluoro-7-(3-fluoro-4-(methylcarbamoyl)benzyl)-2,3-dihydro-1-benzofuran-5-yl)carbonyl)amino)-L-threo-pentitol], the EC50 worked out at 11 nM.

Take `O=C(NC[C@@H]1CCCO1)c1ccc(Cc2cc(C(=O)N[C@H]3CCOC[C@@H]3O)c(F)c3c2OCC3)cc1F` [Example 15, 1,5-anhydro-2,3-dideoxy-3-(((4-fluoro-7-(3-fluoro-4-(((2S)-tetrahydrofuran-2-ylmethyl)carbamoyl)benzyl)-2,3-dihydro-1-benzofuran-5-yl)carbonyl)amino)-L-threo-pentitol]: the EC50 is 4.9 nM.

`COc1c(C(=O)N[C@H]2CCOC[C@@H]2O)cc(Cc2ccc(-c3cn(C)nn3)cc2)c2c1CCO2` [Example 18, 1,5-anhydro-2,3-dideoxy-3-(((4-methoxy-7-(4-(1-methyl-1H-1,2,3-triazol-4-yl)benzyl)-2,3-dihydro-1-benzofuran-5-yl)carbonyl)amino)-L-threo-pentitol]: the EC50 turned out to be 6 nM.

For the compound `Cn1cc(-c2ccc(Cc3cc(C(=O)N[C@H]4CCOC[C@@H]4O)c(O)c4c3OCC4)cc2)nn1` [Example 20, 1,5-anhydro-2,3-dideoxy-3-(((4-hydroxy-7-(4-(1-methyl-1H-1,2,3-triazol-4-yl)benzyl)-2,3-dihydro-1-benzofuran-5-yl)carbonyl)amino)-L-threo-pentitol], the EC50 amounted to 43 nM.

As for `COCCNC(=O)c1ccc(Cc2cc(C(=O)N[C@H]3CCOC[C@@H]3O)c(OC)c3c2OCC3)cc1F` [Example 32, 1,5-anhydro-2,3-dideoxy-3-(((7-(3-fluoro-4-((2-methoxyethyl)carbamoyl)benzyl)-4-methoxy-2,3-dihydro-1-benzofuran-5-yl)carbonyl)amino)-L-threo-pentitol], the EC50 was 24 nM.

As to `COc1c(C(=O)N[C@H]2CCOC[C@@H]2O)cc(Cc2ccc(C(=O)NC[C@@H]3CCCO3)c(F)c2)c2c1CCO2` [Example 33, 1,5-anhydro-2,3-dideoxy-3-(((7-(3-fluoro-4-(((2S)-tetrahydrofuran-2-ylmethyl)carbamoyl)benzyl)-4-methoxy-2,3-dihydro-1-benzofuran-5-yl)carbonyl)amino)-L-threo-pentitol], the EC50 came out at 11 nM.

For the compound `COc1c(C(=O)N[C@H]2CCOC[C@@H]2O)cc(Cc2ccc(C(=O)NC[C@H]3CCCO3)c(F)c2)c2c1CCO2` [Example 43, 1,5-anhydro-2,3-dideoxy-3-(((7-(3-fluoro-4-(((2R)-tetrahydrofuran-2-ylmethyl)carbamoyl)benzyl)-4-methoxy-2,3-dihydro-1-benzofuran-5-yl)carbonyl)amino)-L-threo-pentitol], the EC50 worked out at 96 nM.

`COc1c(C(=O)N[C@H]2CCOC[C@@H]2O)cc(Cc2ccc(-c3cn(C)nn3)cc2)c2c1CCC2` [Example 53, 1,5-anhydro-2,3-dideoxy-3-(((4-methoxy-7-(4-(1-methyl-1H-1,2,3-triazol-4-yl)benzyl)-2,3-dihydro-1H-inden-5-yl)carbonyl)amino)-L-threo-pentitol]: the EC50 came to 3.2 nM.

For `COc1c(C(=O)N[C@H]2CCOC[C@@H]2O)cc(Cc2ccc(-c3cnn(C)c3)nc2)c2c1CCC2` [Example 55, 1,5-anhydro-2,3-dideoxy-3-(((4-methoxy-7-((6-(1-methyl-1H-pyrazol-4-yl)pyridin-3-yl)methyl)-2,3-dihydro-1H-inden-5-yl)carbonyl)amino)-L-threo-pentitol], the EC50 amounted to 5.5 nM.

Consider `CNC(=O)c1ccc(Cc2cc(C(=O)N[C@H]3CCOC[C@@H]3O)c(OC)c3c2CCC3)cc1F` [Example 57, 1,5-anhydro-2,3-dideoxy-3-(((7-(3-fluoro-4-(methylcarbamoyl)benzyl)-4-methoxy-2,3-dihydro-1H-inden-5-yl)carbonyl)amino)-L-threo-pentitol], for which the EC50 stood at 8.9 nM.

Regarding `COCCNC(=O)c1ccc(Cc2cc(C(=O)N[C@H]3CCOC[C@@H]3O)c(OC)c3c2CCC3)cc1F` [Example 58, 1,5-anhydro-2,3-dideoxy-3-(((7-(3-fluoro-4-((2-methoxyethyl)carbamoyl)benzyl)-4-methoxy-2,3-dihydro-1H-inden-5-yl)carbonyl)amino)-L-threo-pentitol], the EC50 turned out to be 9.4 nM.

With `COc1c(C(=O)N[C@H]2CCOC[C@@H]2O)cc(Cc2ccc(C(=O)NC[C@@H]3CCCO3)c(F)c2)c2c1CCC2` [Example 59, 1,5-anhydro-2,3-dideoxy-3-(((7-(3-fluoro-4-(((2S)-tetrahydrofuran-2-ylmethyl)carbamoyl)benzyl)-4-methoxy-2,3-dihydro-1H-inden-5-yl)carbonyl)amino)-L-threo-pentitol], the EC50 turned out to be 3.9 nM.

As for `COc1c(C(=O)N[C@H]2CCOC[C@@H]2O)cc(Cc2ccc(C(=O)NCCCS(C)(=O)=O)c(F)c2)c2c1CCC2` [Example 66, 1,5-anhydro-2,3-dideoxy-3-(((7-(3-fluoro-4-((3-(methylsulfonyl)propyl)carbamoyl)benzyl)-4-methoxy-2,3-dihydro-1H-inden-5-yl)carbonyl)amino)-L-threo-pentitol], the EC50 turned out to be 12 nM.

Take `COc1c(C(=O)N[C@H]2CCOC[C@@H]2O)cc(Cc2ccc(C(=O)NC[C@H]3CCCO3)c(F)c2)c2c1CCC2` [Example 70, 1,5-anhydro-2,3-dideoxy-3-(((7-(3-fluoro-4-(((2R)-tetrahydrofuran-2-ylmethyl)carbamoyl)benzyl)-4-methoxy-2,3-dihydro-1H-inden-5-yl)carbonyl)amino)-L-threo-pentitol]: the EC50 was determined as 32 nM.

The values are drawn from patent publication US12162864B2, “Condensed-cyclic compound” (Takeda Pharmaceutical Company Limited, priority 2018, dated 2024).
